This is an account of results in paper PMC6225212, “Synthesis and Pharmacological Evaluation of Novel Silodosin-Based Arylsulfonamide Derivatives as α1A/α1D-Adrenergic Receptor Antagonist with Potential Uroselective Profile” (Molecules : A Journal of Synthetic Chemistry and Natural …, 2018).

Type in all cases: cell-based
Assay [1] concerns the target T1, α1A-ARs (Homo sapiens, UniProt P35348).
T1 sequence (P35348 1-466): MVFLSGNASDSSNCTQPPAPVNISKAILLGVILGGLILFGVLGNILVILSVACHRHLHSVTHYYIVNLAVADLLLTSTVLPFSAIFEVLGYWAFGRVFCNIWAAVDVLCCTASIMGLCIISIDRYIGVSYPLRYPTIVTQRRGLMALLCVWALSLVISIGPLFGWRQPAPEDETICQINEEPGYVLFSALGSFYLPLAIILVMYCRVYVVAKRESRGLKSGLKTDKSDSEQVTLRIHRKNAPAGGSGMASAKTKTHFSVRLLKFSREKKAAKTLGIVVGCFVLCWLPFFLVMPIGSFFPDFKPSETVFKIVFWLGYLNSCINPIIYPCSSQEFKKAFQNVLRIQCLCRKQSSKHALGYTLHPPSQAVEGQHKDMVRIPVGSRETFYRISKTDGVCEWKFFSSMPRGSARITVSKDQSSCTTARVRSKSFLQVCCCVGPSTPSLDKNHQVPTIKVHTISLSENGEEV
Kind of assay: Intrinsic activity at α1A-ARs, β-lactamase reporter gene, FRET substrate. Also on record: key to α1A Profile: ANT—antagonist; AGO—agonist. To be noted: for IC50: antagonist mode, three independent experiments; for α1A Profile: functional profile. (Reporter assays use an easily measured gene product as a stand-in for the process of interest.)
Description: The intrinsic activity at α1A-ARs of the selected compounds was assessed by fluorescence detection (Invitrogen, Thermo Fisher Scientific, Carlsbad, CA, USA) of β-lactamase reporter genes using a FRET-enabled substrate. […] Intrinsic activity assay was performed according to the manufacturer of the assay kit (Invitrogen, Thermo Fisher Scientific corporation, Carlsbad, CA, USA). The cells were harvested and suspended in Assay Medium to a density of 312,500 cells/mL. Of the cell suspension, 32 µL per well was added to the Test Compound wells, the Unstimulated Control wells, and Stimulated Control wells and incubated per 16–24 h. […] Then, both the agonist and the antagonist plate were incubated in a humidified 37 °C/5% CO2 incubator for 5 h. After the incubation 8 µL of LiveBLAzer™-FRET B/G Substrate Mixture (CCF4-AM, Thermo Fisher Scientific corporation) was loaded cells in the absence of direct strong lighting, covered, and incubated at room temperature for 2 h.

Assay [2] has as its target T2, α1B-ARs (Homo sapiens, UniProt P35368).
T2 sequence (P35368 1-520): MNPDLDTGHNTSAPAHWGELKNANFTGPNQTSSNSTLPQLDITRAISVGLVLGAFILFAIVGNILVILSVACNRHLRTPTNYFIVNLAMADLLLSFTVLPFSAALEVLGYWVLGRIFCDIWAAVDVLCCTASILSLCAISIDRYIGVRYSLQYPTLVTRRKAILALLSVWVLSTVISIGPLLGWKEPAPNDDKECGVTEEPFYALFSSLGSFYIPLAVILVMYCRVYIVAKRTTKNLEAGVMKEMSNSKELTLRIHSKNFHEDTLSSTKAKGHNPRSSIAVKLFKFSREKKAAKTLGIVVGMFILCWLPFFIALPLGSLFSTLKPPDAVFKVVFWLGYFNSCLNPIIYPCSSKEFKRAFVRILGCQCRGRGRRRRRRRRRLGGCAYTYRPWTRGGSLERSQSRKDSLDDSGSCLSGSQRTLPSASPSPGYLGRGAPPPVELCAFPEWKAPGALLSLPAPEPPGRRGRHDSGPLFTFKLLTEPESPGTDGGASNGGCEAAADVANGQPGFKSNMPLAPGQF
Kind of assay: Intrinsic activity at α1B-ARs, aequorin calcium mobilization luminescence. Also on record: key to α1B Profile: ANT—antagonist; AGO—agonist. To be noted: for IC50: antagonist mode, three independent experiments; for α1B Profile: functional profile. The protocol:
(§1) The intrinsic activity at α1A-ARs of the selected compounds was assessed by fluorescence detection (Invitrogen, Thermo Fisher Scientific, Carlsbad, CA, USA) of β-lactamase reporter genes using a FRET-enabled substrate. The intrinsic activity at α1B-ARs and α1D-ARs was determined by luminescence detection (PerkinElmer, Zaventem, Belgium) of calcium mobilization using the recombinant-expressed jellyfish photoprotein (Aequorin).
(§2) Intrinsic activity assay to α1B- and α1D-ARs was performed according to the manufacturer of the ready-to-use cells with stable expression of the α1B-adrenoreceptors and α1D-adrenoreceptors, respectively (PerkinElmer, Zaventem, Belgium). For measurement, cells (frozen, ready to use) were thawed and resuspended in 10 mL of assay buffer containing 5 µM coelenterazine h. This cells suspension was put in a 10 mL Falcon tube, fixed onto a rotating heel, and incubated for overnight at rt in the dark (8 rpm; 45° angle). Cells were diluted with Assay Buffer to 5000 cells/20 µL. Agonistic ligands 2 × (50 µL/well), diluted in Assay Buffer, were prepared in ½ white polystyrene area plates, and the cell suspension was dispensed in 50 µL volume on the ligands using the injector. The light emitted was recorded for 20 s. Cells with antagonist were incubated for 15 min at room temperature. Thereafter, 50 µL of agonist (3 × EC80 final concentration) was injected into the mix of cells and antagonist and the light emitted was recorded for 20 s.
On the technique in general: Calcium assays in cells follow changes in intracellular calcium, usually with a dye or a luminescent sensor.

Assay [3] addresses T3, α1D-ARs (Homo sapiens, UniProt P25100).
T3 sequence (P25100 1-572): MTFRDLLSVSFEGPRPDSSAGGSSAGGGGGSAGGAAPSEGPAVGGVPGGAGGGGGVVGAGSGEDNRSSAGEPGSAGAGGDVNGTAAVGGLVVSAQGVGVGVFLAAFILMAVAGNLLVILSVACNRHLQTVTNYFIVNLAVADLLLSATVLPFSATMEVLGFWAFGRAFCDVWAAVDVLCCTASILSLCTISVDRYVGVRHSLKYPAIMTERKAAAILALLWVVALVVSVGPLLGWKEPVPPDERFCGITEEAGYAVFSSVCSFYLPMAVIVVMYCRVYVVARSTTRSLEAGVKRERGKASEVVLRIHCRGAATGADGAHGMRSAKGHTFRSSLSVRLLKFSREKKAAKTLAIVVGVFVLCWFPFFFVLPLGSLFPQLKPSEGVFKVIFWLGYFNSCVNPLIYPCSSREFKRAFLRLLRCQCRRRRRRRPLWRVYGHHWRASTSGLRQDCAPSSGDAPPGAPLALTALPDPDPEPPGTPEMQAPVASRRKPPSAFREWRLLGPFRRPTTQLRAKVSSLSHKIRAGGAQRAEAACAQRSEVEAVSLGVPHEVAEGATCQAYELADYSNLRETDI
Kind of assay: Intrinsic activity at α1D-ARs, aequorin calcium mobilization luminescence. Set-up: key to α1D Profile: ANT—antagonist; AGO—agonist. The conditions noted are these: for IC50: antagonist mode, three independent experiments; for EC50: antagonist, as worded in abstract and text, read-out: EC50(α1D); for α1D Profile: functional profile. How it is done:
as §1, §2

As to `O=S(=O)(NCC1CCN(CCOc2ccccc2OCC(F)(F)F)CC1)c1cccc(Cl)c1F` [Compound 9, 3-Chloro-2-fluoro-N-[(1-{2-[(2,2,2-trifluoroethoxy)phenoxy]ethyl}piperidin-4-yl)methyl]benzenesulfonamide], in assay [1], the IC50 – broadly, the concentration that gives 50% inhibition – turned out to be 0.8 nM and the “α1A Profile” value is given as “ANT”. Besides, the EC50 – broadly, the concentration that produces a half-maximal response – in assay [1] (antagonist, in abstract) is 0.8 nM. Moreover, the “functional preference over the α1B subtype” value in assay [1] (α1B vs α1A functional potency) is on record as 5 fold. In assay [2], the 50% inhibitory concentration (IC50) was found to be 3.9 nM and the “α1B Profile” value was “ANT”. Besides, in assay [3], the IC50 was 1.1 nM, the EC50 turned out to be 1.1 nM and the “α1D Profile” value is “ANT”.
Consider `CCOc1ccccc1OCCN[C@H](C)Cc1ccc(OC)c(S(N)(=O)=O)c1` [tamsulosin, reference compound], for which the “α1A Profile” value in assay [1] is on record as “ANT”. Moreover, in assay [2], the IC50 is 1.3 nM and the “α1B Profile” value was “ANT”. In assay [3], the IC50 came to 0.005 nM and the “α1D Profile” value is on record as “ANT”.
For the molecule `O=S(=O)(NCC1CCN(CCOc2ccccc2OCC(F)(F)F)CC1)c1cc(Cl)ccc1F` [Compound 10, 5-Chloro-2-fluoro-N-[(1-{2-[(2,2,2-trifluoroethoxy)phenoxy]ethyl}piperidin-4-yl)methyl]benzenesulfonamide], in assay [1], the 50% inhibitory concentration (IC50) was determined as 2.1 nM and the “α1A Profile” value is “ANT”. In addition, in assay [2], the IC50 stood at 10.1 nM and the “α1B Profile” value is given as “ANT”. In assay [3], the IC50 amounted to 2.7 nM, the EC50 lay in the range of 1.1 to 2.7 nM and the “α1D Profile” value is listed as “ANT”.
